# In patent US10067136B1, “Photoactivatable probes and uses thereof” (University of South Florida, priority 2016, dated 2018):
# Entries after “also recorded” stand apart in the source; their conditions may differ.
# Columns and labels:
# [1] = Ambient light stability evaluation (fluorescent lamps, 19F NMR); format: physicochemical; details: d4-methanol; for photodecomposition under ambient light (in words): after 7 days of light exposure; for diazirine remaining intact after ambient light exposure: one month, two linear fluorescent lamps (28 W each), room temperature
# Procedure: Photolabel (1, 2, or 3) (1 mg) was dissolved in d4-methanol (500 μL) in a 5 mm NMR tube. The ^19F NMR of this solution was recorded before any exposure to ambient light as the zero day reading. The NMR tube was then placed directly under two linear fluorescent lamps (28 W each) at room temperature and the ^19F NMR of this solution was recorded periodically (4, 7, 14, 18, 26 and 31 days). The analysis was repeated in duplicate.
# [2] = Near UV-visible absorption spectra; format: physicochemical; details: near-UV/Vis, 2.5 mM solution in methanol; relative to the conventional photolabel
# concanavalin A (Con A) [3] = target: T1, concanavalin A (Con A) (Canavalia ensiformis, UniProt P02866); test: Photolabeling of Con A, Coomassie gel and anti-biotin western blot; format: binding; details: for photolabeling of Con A upon UV photoactivation (in words): UV light >320 nm, 10 minutes, anti-biotin peroxidase western blot; for labeling of Con A without UV photoactivation (in words): incubated with Con A, not exposed to UV light
# Procedure: To a solution of concanavalin A (Con A) (0.2 mg) in acetate buffer (10 mM, pH=5 with calcium chloride (1 mM), manganese (II) chloride (1 mM) and sodium chloride (200 mM)) (1 ml), the photoaffinity label (20, 21 or 22) solution (10 mM) in methanol (3 μL) was added at 0° C. This solution was bubbled with a gentle stream of nitrogen gas, using a clean needle, for 5 minutes and incubated in the dark at 0° C. for 30 minutes. […] The resultant sample can be stored at −80° C. and used for SDS gel, Western blot analysis or mass spectroscopic analysis.
# Upon running the SDS gel, the PVDF membrane and gel was shaken in transfer buffer for 15 minutes. The holder cassette was placed opened in a shallow vessel such that the black panel was lying flat on the bottom of the vessel. Fiber pad presoaked with transfer buffer was then placed on the black panel of the holder cassette and a presoaked filter paper was placed over it. The equilibrated gel was carefully placed over the filter paper to avoid any air bubble getting trapped between the layers. Then the PVDF membrane was laid over the gel with care towards avoiding any air pocket between the layers. A presoaked filter paper was placed over the membrane followed by a filter pad. The resultant sandwich was firmly secured and the cassette was closed. The cassette holder was placed in the tank such that the black panel of the holder was on the black panel electrode. Insert the ice pack on the other side of the tank and place the tank on a magnetic stirrer. The tank was filled to the top row of circles in the cassette with transfer buffer. The magnetic stirrer was turned on and the lid was closed with black wire to black panel, red wire to red panel. The unit was connected to a power supply and ran at constant voltage of 70 V for 60 minutes. The membrane was carefully removed and the membrane was blocked with 5% (w/v) NFDM (non-fat dry milk) in tris saline Tween-20 buffer (TBS-T) for 1 hour at room temperature. The blocked membrane was then incubated overnight on a shaker at 4° C. with anti-biotin-peroxidase antibody in TBS-T buffer containing 1% NFDM. The membrane was washed five times (10 minutes each time on a shaker) with TBS-T buffer. The membrane was incubated for 5 minutes at room temperature with SuperSignal West Pico chemiluminescence substrate as per manufacturer's protocol. The resultant chemiluminescence of the bands was recorded on a photographic film and developed using a film processor.
# [4] = Thermal stability evaluation in the dark (19F NMR); format: physicochemical; details: d4-methanol solution, room temperature (21° C.), one month
# Procedure: Photolabel (1, 2, or 3) (1 mg) was dissolved in d4-methanol (500 μL) in a 5 mm NMR tube. The ^19F NMR of this solution was recorded before any exposure to ambient light as the zero day reading. The NMR tube was then placed in the dark at room temperature and the ^19F NMR of this solution was recorded periodically (8, 14, and 31 days). The analysis was repeated in duplicate.
# concanavalin A (Con A) [5] = target: T1, concanavalin A (Con A); test: Photolabeling of Con A in the presence of mannose (competitive binding); details: competing mannose at 100 fold or 1000 fold, western blot
# Procedure: For the competitive binding studies with mannose, to a solution of Con A (0.2 mg) in acetate buffer (10 mM, pH=5 with calcium chloride (1 mM), manganese (II) chloride (1 mM) and sodium chloride (200 mM)) (1 ml) a aqueous solution of mannose (30 μL of 100 mM solution for 100 fold [or] 30 μL of 1 M solution for 1000 fold) was added and mixed. To this the photoaffinity label (20, 21 or 22) solution (10 mM) in methanol (3 μL) was added at 0° C. This solution was bubbled with a gentle stream of nitrogen gas, using a clean needle, for 5 minutes and incubated in the dark at 0° C. for 30 minutes. The sample was then transferred to a disposable cuvette and photoactivated for 10 minutes using a 150 W XBO xenon short-arc UV lamp fitted with a filter that cuts off light with wavelengths less than 320 nm. The resultant sample can be stored at −80° C. and used for SDS gel and Western blot analysis.
# Upon running the SDS gel, the PVDF membrane and gel was shaken in transfer buffer for 15 minutes. The holder cassette was placed opened in a shallow vessel such that the black panel was lying flat on the bottom of the vessel. Fiber pad presoaked with transfer buffer was then placed on the black panel of the holder cassette and a presoaked filter paper was placed over it. […] The resultant chemiluminescence of the bands was recorded on a photographic film and developed using a film processor.
SMILES,photodecomposition under ambient light (in words) [1],diazirine remaining intact after ambient light exposure [1],decrease of absorption coefficient ϵ [2],photolabeling of Con A upon UV photoactivation (in words) (concanavalin A (Con A) [3]),decomposition / stability in the dark (in words) [4],labeling of Con A without UV photoactivation (in words) (concanavalin A (Con A) [3]),photolabeling / crosslinking of Con A in the presence of mannose (in words) (concanavalin A (Con A) [5])
"OCc1ccc(C2(C(F)(F)F)N=N2)cn1 [compound 1, (5-(3-(trifluoromethyl)-3H-diazirin-3-yl)pyridin-2-yl)methanol]",negligibly photodecomposed,79%,approximately 15%,as efficiently as the conventional diazirine photolabel 3,stable,–,–
"OCc1ncc(C2(C(F)(F)F)N=N2)cn1 [compound 2, (5-(3-(trifluoromethyl)-3H-diazirin-3-yl)pyrimidin-2-yl) methanol]",virtually unaffected,90%,~30%,as efficiently as the conventional diazirine photolabel 3,stable,–,–
"OCc1ccc(C2(C(F)(F)F)N=N2)cc1 [compound 3, (4-(3-(trifluoromethyl)-3H-diazirin-3-yl)phenyl)methanol, reference compound]",significant photodecomposition,27%,–,–,stable,–,–
"O=C(CCCCC1SCC2NC(=O)NC21)NCCCCCCN(Cc1ccc(C2(C(F)(F)F)N=N2)cc1)C(=O)CO[C@H]1O[C@H](CO)[C@@H](O)[C@H](O)[C@@H]1O (stereo partly drawn) [compound 20, 5-(2-oxohexahydro-1H-thieno[3,4-d]imidazol-4-yl)-N-(6-(N-(4-(3-(trifluoromethyl)-3H-diazirin-3-yl)benzyl)-2-(((2S,3S,4S,5S,6R)-3,4,5-trihydroxy-6-(hydroxymethyl)tetrahydro-2H-pyran-2-yl)oxy)acetamido)hexyl)pentanamide]",–,–,–,successfully labeled the protein target upon photoactivation,–,detected only with coomassie stain and not in the western blot analysis,–
"O=C(CCCCC1SCC2NC(=O)NC21)NCCCCCCN(Cc1ccc(C2(C(F)(F)F)N=N2)cn1)C(=O)CO[C@H]1O[C@H](CO)[C@@H](O)[C@H](O)[C@@H]1O (stereo partly drawn) [compound 21, 5-(2-oxohexahydro-1H-thieno[3,4-d]imidazol-4-yl)-N-(6-(N-((5-(3-(trifluoromethyl)-3H-diazirin-3-yl)pyridin-2-yl)methyl)-2-(((2S,3S,4S,5S,6R)-3,4,5-trihydroxy-6-(hydroxymethyl)tetrahydro-2H-pyran-2-yl)oxy)acetamido)hexyl)pentanamide]",–,–,–,successfully labeled the protein target upon photoactivation; also recorded: as effectively as the conventional phenyl derived photolabel 20,–,detected only with coomassie stain and not in the western blot analysis,correlates indirectly to the concentration of competing mannose ligand
"O=C(CCCCC1SCC2NC(=O)NC21)NCCCCCCN(Cc1ncc(C2(C(F)(F)F)N=N2)cn1)C(=O)CO[C@H]1O[C@H](CO)[C@@H](O)[C@H](O)[C@@H]1O (stereo partly drawn) [compound 22, 5-(2-oxohexahydro-1H-thieno[3,4-d]imidazol-4-yl)-N-(6-(N-((5-(3-(trifluoromethyl)-3H-diazirin-3-yl)pyrimidin-2-yl)methyl)-2-(((2S,3S,4S,5S,6R)-3,4,5-trihydroxy-6-(hydroxymethyl)tetrahydro-2H-pyran-2-yl)oxy)acetamido)hexyl)pentanamide]",–,–,–,successfully labeled the protein target upon photoactivation; also recorded: as effectively as the conventional phenyl derived photolabel 20,–,detected only with coomassie stain and not in the western blot analysis,correlates indirectly to the concentration of competing mannose ligand
